From article PMC7413254 (Nature Communications, 2020)
Like-named read-outs stand apart in the source and are kept apart here.

Experiments:
C2^GC03 parasites = experiment: P. falciparum proliferation assay; assay type: cell-based; conditions: Plasmodium falciparum
Method: Parasite proliferation was measured in 96-well plates using a fluorescent DNA-intercalating dye[68],[69]. Synchronous ring-stage parasite cultures (~1% haematocrit and 1% parasitaemia) were incubated with different concentrations of the test compound for 72 h at 37 °C and under reduced O2 conditions. The assay was terminated by freezing and thawing the samples, after which 100 μL of SYBR Safe DNA Gel Stain (Molecular Probes; 0.2 μL/mL) in a lysis buffer (20 mM Tris-HCl, 5 mM EDTA, 0.008% (w/v) saponin and 0.08% (v/v) Triton X-100; pH 7.5) was added to each well. The fluorescence from each well was measured using a Tecan Infinite M1000 PRO microplate reader (excitation wavelength 490 nm; emission wavelength 520 nm). The fluorescence values for the wells containing the highest concentration of the compound were averaged and this value was then subtracted from each of the well values obtained for that 96-well plate. The level of parasite proliferation in the presence of each compound concentration was expressed as a percentage of the proliferation measured in the absence of the compound. The IC50s were determined in SigmaPlot Windows Version 11.0 by a least-squares fit of the equation y = a/[1 + ([compound]/IC50)^c] to the data, where y is the percent parasite proliferation, a is the maximum change in the percent parasite proliferation, and c is a fitted constant. In all cases, five independent experiments were performed (on different days), and within each experiment measurements were averaged from three replicates.

PfNT1 = molecular target: T1, PfNT1 (Plasmodium falciparum, UniProt Q8IDM6); experiment: [3H]CQ uptake into Xenopus oocytes (ion and membrane-potential dependence, Supplementary Fig. 2); assay type: cell-based
T1 construct: expressed in transfected cells; host or cells: Xenopus laevis oocytes (stage V-VI), cRNA-injected

PfCRT^Ecu1110 = experiment: cell-based; assay type: cell-based, Plasmodium falciparum; conditions: for PfCRT-mediated [3H]CQ transport, trans-stimulation (% PfCRTEcu1110 control): PfCRTEcu1110 oocytes, normalised to oocyte type control; for [3H]CQ transport (% PfCRTDd2 control), trans-stimulation, PfCRTEcu1110: PfCRT-mediated component (background subtracted), sheet title says normalised to PfCRTDd2 control, mean ± SEM, SEM
Summary of the method: (§1)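 Oocytes (ten per treatment, ≥4 independent frogs/days) were preloaded by injecting VF-6 in 25 nL ND96 at pH 5.0, 5.5, 6.0 or 7.0, or Na^+-free choline buffer, then uptake run 1.5 h, 27.5 °C, ND96 pH 5.5 by default. Internal concentrations assumed ~400 nL oocyte volume.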

PfCRT^Dd2 = experiment: cell-based; assay type: cell-based, Plasmodium falciparum; conditions: for PfCRT-mediated [3H]CQ transport, trans-stimulation (% PfCRTDd2 control): PfCRTDd2 oocytes, normalised to oocyte type control; for [3H]CQ transport (% PfCRTDd2 control), trans-stimulation, PfCRTDd2: PfCRT-mediated component (background subtracted), mean ± SEM, SEM
Summary of the method: as §1

[1] = [test solute]i = 5 mM (intracellular)
[2] = [test solute]i = 45 mM (intracellular; 30 mM for some solutes due to solubility)
[3] = [test solute]i = 5 mM (injected)
[4] = [test solute]i = 45 mM (30 mM for some solutes due to solubility)

T1 sequence (Q8IDM6 whole entry): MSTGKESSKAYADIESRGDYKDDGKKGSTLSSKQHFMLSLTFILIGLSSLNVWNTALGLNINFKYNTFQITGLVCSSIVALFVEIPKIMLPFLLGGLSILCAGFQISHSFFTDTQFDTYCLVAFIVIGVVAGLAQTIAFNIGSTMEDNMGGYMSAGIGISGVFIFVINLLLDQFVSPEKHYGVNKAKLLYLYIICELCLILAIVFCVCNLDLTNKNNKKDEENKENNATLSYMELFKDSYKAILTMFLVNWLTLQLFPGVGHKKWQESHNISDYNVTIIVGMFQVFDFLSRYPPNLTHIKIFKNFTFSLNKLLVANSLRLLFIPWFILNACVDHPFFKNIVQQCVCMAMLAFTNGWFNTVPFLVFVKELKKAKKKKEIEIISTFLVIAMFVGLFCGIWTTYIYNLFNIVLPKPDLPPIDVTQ

CCN(CC)CCCC(C)Nc1ccnc2cc(Cl)ccc12 (centres unmarked) [CQ, chloroquine, reference compound]
IC50 (C2^GC03 parasites; 72 h, read-out: IC50 (nM), parasite proliferation, + 1 μM VP, SEM): 26 ± 1.3 nM
IC50 (C2^GC03 parasites; C2GC03, 72 h, 37 °C, SYBR Safe, mean ± SEM, n = 5, read-out: IC50 (nM), parasite proliferation, Control): 27 ± 1.6 nM
[3H]CQ transport, PfNT1 (PfNT1; 0 mM Ca2+, Experiment 1): 3.03 % PfCRTDd2 control
[3H]CQ transport, PfNT1 (PfNT1; 0 mM Ca2+, Experiment 2): 3.55 % PfCRTDd2 control
[3H]CQ transport, PfNT1 (PfNT1; 0 mM Ca2+, Experiment 3): 3.65 % PfCRTDd2 control
[3H]CQ transport, PfNT1 (PfNT1; 0 mM Ca2+, Experiment 4): 3.28 % PfCRTDd2 control
[3H]CQ transport, PfNT1 (PfNT1; 0 mM Cl-, Experiment 1): 3.68 % PfCRTDd2 control
[3H]CQ transport, PfNT1 (PfNT1; 0 mM Cl-, Experiment 2): 3.72 % PfCRTDd2 control
[3H]CQ transport, PfNT1 (PfNT1; 0 mM Cl-, Experiment 3): 4.16 % PfCRTDd2 control
[3H]CQ transport, PfNT1 (PfNT1; 0 mM Cl-, Experiment 4): 3.75 % PfCRTDd2 control
[3H]CQ transport, PfNT1 (PfNT1; 0 mM Na+, Experiment 1): 3.67 % PfCRTDd2 control
[3H]CQ transport, PfNT1 (PfNT1; 0 mM Na+, Experiment 2): 3.32 % PfCRTDd2 control
[3H]CQ transport, PfNT1 (PfNT1; 0 mM Na+, Experiment 3): 3.62 % PfCRTDd2 control
[3H]CQ transport, PfNT1 (PfNT1; 0 mM Na+, Experiment 4): 3.15 % PfCRTDd2 control
[3H]CQ transport, PfNT1 (PfNT1; 1 mM Ca2+, Experiment 1): 4.25 % PfCRTDd2 control
[3H]CQ transport, PfNT1 (PfNT1; 1 mM Ca2+, Experiment 2): 3.56 % PfCRTDd2 control
[3H]CQ transport, PfNT1 (PfNT1; 1 mM Ca2+, Experiment 3): 3.56 % PfCRTDd2 control
[3H]CQ transport, PfNT1 (PfNT1; 1 mM Ca2+, Experiment 4): 4.24 % PfCRTDd2 control
[3H]CQ transport, PfNT1 (PfNT1; 3 mM Ca2+, Experiment 1): 3.29 % PfCRTDd2 control
[3H]CQ transport, PfNT1 (PfNT1; 3 mM Ca2+, Experiment 2): 3.28 % PfCRTDd2 control
[3H]CQ transport, PfNT1 (PfNT1; 3 mM Ca2+, Experiment 3): 3.36 % PfCRTDd2 control
[3H]CQ transport, PfNT1 (PfNT1; 3 mM Ca2+, Experiment 4): 3.62 % PfCRTDd2 control
[3H]CQ transport, PfNT1 (PfNT1; 5 mM Ca2+, Experiment 1): 3.95 % PfCRTDd2 control
[3H]CQ transport, PfNT1 (PfNT1; 5 mM Ca2+, Experiment 2): 3.75 % PfCRTDd2 control
[3H]CQ transport, PfNT1 (PfNT1; 5 mM Ca2+, Experiment 3): 3.96 % PfCRTDd2 control
[3H]CQ transport, PfNT1 (PfNT1; 5 mM Ca2+, Experiment 4): 3.37 % PfCRTDd2 control

N[C@@H](Cc1c[nH]cn1)C(=O)O [L-histidine]
PfCRT-mediated [3H]CQ transport, trans-stimulation (% PfCRTEcu1110 control) (PfCRT^Ecu1110; [1]): 98 ± 2.8 % PfCRTEcu1110 control
PfCRT-mediated [3H]CQ transport, trans-stimulation (% PfCRTEcu1110 control) (PfCRT^Ecu1110; [2]): 97 ± 4.1 % PfCRTEcu1110 control
[3H]CQ transport (% PfCRTDd2 control), trans-stimulation, PfCRTEcu1110 (PfCRT^Ecu1110; [3]): 33 ± 2.2 % PfCRTEcu1110 control
[3H]CQ transport (% PfCRTDd2 control), trans-stimulation, PfCRTEcu1110 (PfCRT^Ecu1110; [4]): 32 ± 1.6 % PfCRTEcu1110 control
PfCRT-mediated [3H]CQ transport, trans-stimulation (% PfCRTDd2 control) (PfCRT^Dd2; [1]): 99 ± 3.9 % PfCRTDd2 control
PfCRT-mediated [3H]CQ transport, trans-stimulation (% PfCRTDd2 control) (PfCRT^Dd2; [2]): 95 ± 2.5 % PfCRTDd2 control
[3H]CQ transport (% PfCRTDd2 control), trans-stimulation, PfCRTDd2 (PfCRT^Dd2; [3]): 99 ± 3.9 % PfCRTDd2 control
[3H]CQ transport (% PfCRTDd2 control), trans-stimulation, PfCRTDd2 (PfCRT^Dd2; [4]): 95 ± 2.5 % PfCRTDd2 control

CSCC[C@H](N)C(=O)O [L-methionine]
PfCRT-mediated [3H]CQ transport, trans-stimulation (% PfCRTEcu1110 control) (PfCRT^Ecu1110; [1]): 96 ± 1.4 % PfCRTEcu1110 control
PfCRT-mediated [3H]CQ transport, trans-stimulation (% PfCRTEcu1110 control) (PfCRT^Ecu1110; [2]): 98 ± 4.6 % PfCRTEcu1110 control
[3H]CQ transport (% PfCRTDd2 control), trans-stimulation, PfCRTEcu1110 (PfCRT^Ecu1110; [3]): 32 ± 1.1 % PfCRTEcu1110 control
[3H]CQ transport (% PfCRTDd2 control), trans-stimulation, PfCRTEcu1110 (PfCRT^Ecu1110; [4]): 33 ± 1.3 % PfCRTEcu1110 control
PfCRT-mediated [3H]CQ transport, trans-stimulation (% PfCRTDd2 control) (PfCRT^Dd2; [1]): 98 ± 4.1 % PfCRTDd2 control
PfCRT-mediated [3H]CQ transport, trans-stimulation (% PfCRTDd2 control) (PfCRT^Dd2; [2]): 97 ± 3.5 % PfCRTDd2 control
[3H]CQ transport (% PfCRTDd2 control), trans-stimulation, PfCRTDd2 (PfCRT^Dd2; [3]): 98 ± 4.1 % PfCRTDd2 control
[3H]CQ transport (% PfCRTDd2 control), trans-stimulation, PfCRTDd2 (PfCRT^Dd2; [4]): 97 ± 3.5 % PfCRTDd2 control

CC(C)(C)NC(=O)[C@@H]1C[C@@H]2CCCC[C@@H]2CN1C[C@@H](O)[C@H](Cc1ccccc1)NC(=O)[C@H](CC(N)=O)NC(=O)c1ccc2ccccc2n1 [Saquinavir, saquinavir, reference compound]
IC50 (C2^GC03 parasites; 72 h, read-out: IC50 (μM), parasite proliferation, + 1 μM VP, SEM): 5100 ± 200 nM
IC50 (C2^GC03 parasites; C2GC03, 72 h, 37 °C, SYBR Safe, mean ± SEM, n = 5, read-out: IC50 (μM), parasite proliferation, Control): 6800 ± 400 nM
